According to ChEMBL document CHEMBL5678818, “Discovery of potent SOS1 inhibitors that block RAS activation via disruption of the RAS-SOS1 interaction” (Proc Natl Acad Sci U S A, 2019):
Active and inactive are the calls of the source. The rule behind the calls is not given here.

Columns and labels:
[1] = organism: Homo sapiens; assay: Inhibition of N-terminal His10-tagged 15N-labeled recombinant human KRAS G12C/C118S mutant (1 to 169 residues) expressed in Escherichia coli/N-terminal His10-tagged wild-type recombinant human SOS1 catalytic domain (564 to 1049 residues) expressed in Escherichia coli protein-protein interaction at 1 mM incubated for 30 mins by 2D-NMR analysis
[2] = target: Mitotic checkpoint serine/threonine-protein kinase BUB1 (Homo sapiens) (UniProt O43683); assay: Inhibition of BUB1 (unknown origin) assessed as residual activity at 100 nM by KINOMEscan analysis relative to control
[3] = target: Mitogen-activated protein kinase 3 (Homo sapiens) (UniProt P27361); assay: Inhibition of ERK1 (unknown origin) assessed as residual activity at 100 nM by KINOMEscan analysis relative to control
[4] = target: T1, Mitogen-activated protein kinase kinase kinase 15 (Homo sapiens) (UniProt Q6ZN16); assay: Inhibition of MAP3K15 (unknown origin) assessed as residual activity at 100 nM by KINOMEscan analysis relative to control
T1 sequence (whole entry): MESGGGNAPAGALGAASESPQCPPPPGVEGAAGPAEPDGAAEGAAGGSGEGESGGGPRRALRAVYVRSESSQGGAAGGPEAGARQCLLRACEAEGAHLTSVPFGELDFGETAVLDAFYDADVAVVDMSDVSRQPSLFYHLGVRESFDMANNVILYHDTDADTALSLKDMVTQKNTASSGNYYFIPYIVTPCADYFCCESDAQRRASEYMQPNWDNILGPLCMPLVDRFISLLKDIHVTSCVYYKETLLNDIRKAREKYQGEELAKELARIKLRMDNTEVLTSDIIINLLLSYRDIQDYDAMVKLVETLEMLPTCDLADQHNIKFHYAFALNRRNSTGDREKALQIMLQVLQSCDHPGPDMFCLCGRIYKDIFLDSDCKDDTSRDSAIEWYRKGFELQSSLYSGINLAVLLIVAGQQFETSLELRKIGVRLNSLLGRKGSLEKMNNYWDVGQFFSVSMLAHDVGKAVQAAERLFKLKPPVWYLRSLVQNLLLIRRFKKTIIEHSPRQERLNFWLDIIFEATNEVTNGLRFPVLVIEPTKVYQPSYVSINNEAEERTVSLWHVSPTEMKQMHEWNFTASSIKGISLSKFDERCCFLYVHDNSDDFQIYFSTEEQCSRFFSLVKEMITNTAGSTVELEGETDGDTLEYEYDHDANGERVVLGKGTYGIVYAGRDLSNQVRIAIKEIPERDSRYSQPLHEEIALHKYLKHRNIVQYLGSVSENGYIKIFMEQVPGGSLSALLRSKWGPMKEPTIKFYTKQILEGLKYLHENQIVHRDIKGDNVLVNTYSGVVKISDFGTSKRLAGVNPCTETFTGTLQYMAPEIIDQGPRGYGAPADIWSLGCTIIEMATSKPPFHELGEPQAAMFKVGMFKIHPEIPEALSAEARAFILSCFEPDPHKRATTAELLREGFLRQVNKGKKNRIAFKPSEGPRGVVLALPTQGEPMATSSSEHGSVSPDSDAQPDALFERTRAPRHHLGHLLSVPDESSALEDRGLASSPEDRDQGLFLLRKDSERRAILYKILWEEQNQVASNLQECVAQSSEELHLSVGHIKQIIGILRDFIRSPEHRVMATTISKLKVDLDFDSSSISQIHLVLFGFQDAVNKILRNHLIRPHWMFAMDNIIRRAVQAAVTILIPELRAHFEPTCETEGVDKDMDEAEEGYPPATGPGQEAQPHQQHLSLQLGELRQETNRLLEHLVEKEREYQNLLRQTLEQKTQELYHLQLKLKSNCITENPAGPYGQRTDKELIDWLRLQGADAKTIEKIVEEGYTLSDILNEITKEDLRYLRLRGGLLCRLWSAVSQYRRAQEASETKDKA

[5] = target: T2, Protein kinase C epsilon type (Homo sapiens) (UniProt Q02156); assay: Inhibition of PRKCE (unknown origin) assessed as residual activity at 100 nM by KINOMEscan analysis relative to control
T2 sequence (whole entry): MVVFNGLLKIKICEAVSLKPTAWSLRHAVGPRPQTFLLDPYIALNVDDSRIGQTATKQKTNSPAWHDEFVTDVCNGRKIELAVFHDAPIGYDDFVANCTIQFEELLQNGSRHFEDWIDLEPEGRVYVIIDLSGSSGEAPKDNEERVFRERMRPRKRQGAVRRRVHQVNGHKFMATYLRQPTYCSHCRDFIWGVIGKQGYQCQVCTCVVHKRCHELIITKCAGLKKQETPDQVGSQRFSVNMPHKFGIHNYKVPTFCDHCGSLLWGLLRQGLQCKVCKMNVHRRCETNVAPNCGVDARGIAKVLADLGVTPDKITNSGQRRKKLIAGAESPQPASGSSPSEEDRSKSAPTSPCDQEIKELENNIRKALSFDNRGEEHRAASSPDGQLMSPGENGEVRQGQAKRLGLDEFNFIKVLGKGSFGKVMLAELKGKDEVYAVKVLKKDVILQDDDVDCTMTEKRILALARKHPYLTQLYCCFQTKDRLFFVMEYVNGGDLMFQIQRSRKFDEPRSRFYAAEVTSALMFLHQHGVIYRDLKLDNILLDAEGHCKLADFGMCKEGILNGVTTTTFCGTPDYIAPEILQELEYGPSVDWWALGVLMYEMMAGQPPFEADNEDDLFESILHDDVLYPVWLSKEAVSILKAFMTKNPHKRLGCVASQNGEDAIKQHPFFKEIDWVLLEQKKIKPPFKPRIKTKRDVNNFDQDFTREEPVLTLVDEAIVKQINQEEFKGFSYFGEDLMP

[6] = target: Serine/threonine-protein kinase SIK3 (Homo sapiens) (UniProt Q9Y2K2); assay: Inhibition of QSK (unknown origin) assessed as residual activity at 100 nM by KINOMEscan analysis relative to control
[7] = target: Ribosomal protein S6 kinase alpha-2 (Homo sapiens) (UniProt Q15349); assay: Inhibition of C-terminal RSK3 […] domain 2 (unknown origin) assessed as residual activity at 100 nM by KINOMEscan analysis relative to control
[8] = target: Ribosomal protein S6 kinase alpha-6 (Homo sapiens) (UniProt Q9UK32); assay: Inhibition of C-terminal RSK4 kinetic domain 2 (unknown origin) assessed as residual activity at 100 nM by KINOMEscan analysis relative to control
Sequence of Ribosomal protein S6 kinase alpha-6 (Homo sapiens) (Q9UK32 whole entry, the tested form may be a part): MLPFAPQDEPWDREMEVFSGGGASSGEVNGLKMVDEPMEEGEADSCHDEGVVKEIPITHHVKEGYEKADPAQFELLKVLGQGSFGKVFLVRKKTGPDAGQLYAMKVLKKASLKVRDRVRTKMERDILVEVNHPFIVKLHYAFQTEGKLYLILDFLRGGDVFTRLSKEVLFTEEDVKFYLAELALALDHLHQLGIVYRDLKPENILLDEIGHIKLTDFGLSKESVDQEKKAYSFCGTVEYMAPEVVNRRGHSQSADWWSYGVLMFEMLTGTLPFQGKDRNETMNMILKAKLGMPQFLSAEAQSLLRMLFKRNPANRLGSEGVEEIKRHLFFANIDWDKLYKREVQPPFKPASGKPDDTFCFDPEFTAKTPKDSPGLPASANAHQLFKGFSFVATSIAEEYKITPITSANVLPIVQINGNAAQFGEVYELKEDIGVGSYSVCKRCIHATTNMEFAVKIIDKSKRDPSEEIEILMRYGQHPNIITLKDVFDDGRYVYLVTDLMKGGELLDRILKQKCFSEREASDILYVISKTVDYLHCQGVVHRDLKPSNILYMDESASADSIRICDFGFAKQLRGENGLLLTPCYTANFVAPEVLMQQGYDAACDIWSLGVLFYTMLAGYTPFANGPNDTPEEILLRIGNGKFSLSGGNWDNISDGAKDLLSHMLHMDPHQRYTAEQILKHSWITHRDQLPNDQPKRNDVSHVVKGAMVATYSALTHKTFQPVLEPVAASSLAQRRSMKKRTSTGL

Sequence of Ribosomal protein S6 kinase alpha-2 (Homo sapiens) (Q15349 whole entry, the tested form may be a part): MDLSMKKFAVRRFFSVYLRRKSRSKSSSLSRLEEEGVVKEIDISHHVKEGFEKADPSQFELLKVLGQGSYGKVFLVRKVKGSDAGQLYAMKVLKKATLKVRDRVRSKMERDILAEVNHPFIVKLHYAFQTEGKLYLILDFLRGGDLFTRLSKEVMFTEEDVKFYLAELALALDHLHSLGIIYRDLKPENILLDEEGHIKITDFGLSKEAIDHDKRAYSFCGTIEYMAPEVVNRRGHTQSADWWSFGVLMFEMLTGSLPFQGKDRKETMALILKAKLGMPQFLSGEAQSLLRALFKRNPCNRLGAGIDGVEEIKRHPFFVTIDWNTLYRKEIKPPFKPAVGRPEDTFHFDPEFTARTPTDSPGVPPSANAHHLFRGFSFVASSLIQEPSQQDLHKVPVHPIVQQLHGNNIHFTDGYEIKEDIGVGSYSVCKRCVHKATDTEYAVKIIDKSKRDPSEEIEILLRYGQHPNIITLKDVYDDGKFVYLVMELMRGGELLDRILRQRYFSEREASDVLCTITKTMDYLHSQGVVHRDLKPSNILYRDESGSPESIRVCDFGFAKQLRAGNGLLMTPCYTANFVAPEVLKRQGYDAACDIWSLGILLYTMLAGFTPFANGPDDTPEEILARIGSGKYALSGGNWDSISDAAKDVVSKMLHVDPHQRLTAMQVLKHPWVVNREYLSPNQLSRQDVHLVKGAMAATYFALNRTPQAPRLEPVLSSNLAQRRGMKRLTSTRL
Sequence of Mitotic checkpoint serine/threonine-protein kinase BUB1 (Homo sapiens) (O43683 whole entry, looked up): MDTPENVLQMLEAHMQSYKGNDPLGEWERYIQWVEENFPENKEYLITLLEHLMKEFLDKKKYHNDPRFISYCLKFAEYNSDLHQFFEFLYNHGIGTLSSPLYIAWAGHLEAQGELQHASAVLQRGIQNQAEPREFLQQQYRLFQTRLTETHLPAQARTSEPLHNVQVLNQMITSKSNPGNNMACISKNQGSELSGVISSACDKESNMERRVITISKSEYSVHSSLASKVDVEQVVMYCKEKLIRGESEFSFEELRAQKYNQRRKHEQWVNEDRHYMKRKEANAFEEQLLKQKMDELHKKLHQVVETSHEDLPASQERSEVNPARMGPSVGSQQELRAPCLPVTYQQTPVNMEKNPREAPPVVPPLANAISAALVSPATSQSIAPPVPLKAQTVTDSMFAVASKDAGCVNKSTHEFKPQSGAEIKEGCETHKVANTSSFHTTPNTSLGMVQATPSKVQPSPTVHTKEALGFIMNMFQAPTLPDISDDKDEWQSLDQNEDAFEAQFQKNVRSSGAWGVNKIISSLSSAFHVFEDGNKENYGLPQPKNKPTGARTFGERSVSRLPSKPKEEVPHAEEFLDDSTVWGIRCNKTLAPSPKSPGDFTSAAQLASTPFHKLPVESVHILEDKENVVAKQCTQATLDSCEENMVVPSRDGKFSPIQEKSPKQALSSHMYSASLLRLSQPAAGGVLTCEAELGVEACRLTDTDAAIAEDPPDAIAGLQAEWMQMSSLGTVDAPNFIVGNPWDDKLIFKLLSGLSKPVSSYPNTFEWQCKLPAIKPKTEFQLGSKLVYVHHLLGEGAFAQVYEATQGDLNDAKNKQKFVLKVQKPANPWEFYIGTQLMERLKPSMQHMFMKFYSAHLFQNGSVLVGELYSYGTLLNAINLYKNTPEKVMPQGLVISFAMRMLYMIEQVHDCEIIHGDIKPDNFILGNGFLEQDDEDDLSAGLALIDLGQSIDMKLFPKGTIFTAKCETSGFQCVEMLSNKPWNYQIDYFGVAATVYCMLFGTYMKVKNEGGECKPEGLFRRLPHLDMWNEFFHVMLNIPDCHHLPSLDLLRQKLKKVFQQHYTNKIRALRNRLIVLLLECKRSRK
Sequence of Serine/threonine-protein kinase SIK3 (Homo sapiens) (Q9Y2K2 whole entry, looked up): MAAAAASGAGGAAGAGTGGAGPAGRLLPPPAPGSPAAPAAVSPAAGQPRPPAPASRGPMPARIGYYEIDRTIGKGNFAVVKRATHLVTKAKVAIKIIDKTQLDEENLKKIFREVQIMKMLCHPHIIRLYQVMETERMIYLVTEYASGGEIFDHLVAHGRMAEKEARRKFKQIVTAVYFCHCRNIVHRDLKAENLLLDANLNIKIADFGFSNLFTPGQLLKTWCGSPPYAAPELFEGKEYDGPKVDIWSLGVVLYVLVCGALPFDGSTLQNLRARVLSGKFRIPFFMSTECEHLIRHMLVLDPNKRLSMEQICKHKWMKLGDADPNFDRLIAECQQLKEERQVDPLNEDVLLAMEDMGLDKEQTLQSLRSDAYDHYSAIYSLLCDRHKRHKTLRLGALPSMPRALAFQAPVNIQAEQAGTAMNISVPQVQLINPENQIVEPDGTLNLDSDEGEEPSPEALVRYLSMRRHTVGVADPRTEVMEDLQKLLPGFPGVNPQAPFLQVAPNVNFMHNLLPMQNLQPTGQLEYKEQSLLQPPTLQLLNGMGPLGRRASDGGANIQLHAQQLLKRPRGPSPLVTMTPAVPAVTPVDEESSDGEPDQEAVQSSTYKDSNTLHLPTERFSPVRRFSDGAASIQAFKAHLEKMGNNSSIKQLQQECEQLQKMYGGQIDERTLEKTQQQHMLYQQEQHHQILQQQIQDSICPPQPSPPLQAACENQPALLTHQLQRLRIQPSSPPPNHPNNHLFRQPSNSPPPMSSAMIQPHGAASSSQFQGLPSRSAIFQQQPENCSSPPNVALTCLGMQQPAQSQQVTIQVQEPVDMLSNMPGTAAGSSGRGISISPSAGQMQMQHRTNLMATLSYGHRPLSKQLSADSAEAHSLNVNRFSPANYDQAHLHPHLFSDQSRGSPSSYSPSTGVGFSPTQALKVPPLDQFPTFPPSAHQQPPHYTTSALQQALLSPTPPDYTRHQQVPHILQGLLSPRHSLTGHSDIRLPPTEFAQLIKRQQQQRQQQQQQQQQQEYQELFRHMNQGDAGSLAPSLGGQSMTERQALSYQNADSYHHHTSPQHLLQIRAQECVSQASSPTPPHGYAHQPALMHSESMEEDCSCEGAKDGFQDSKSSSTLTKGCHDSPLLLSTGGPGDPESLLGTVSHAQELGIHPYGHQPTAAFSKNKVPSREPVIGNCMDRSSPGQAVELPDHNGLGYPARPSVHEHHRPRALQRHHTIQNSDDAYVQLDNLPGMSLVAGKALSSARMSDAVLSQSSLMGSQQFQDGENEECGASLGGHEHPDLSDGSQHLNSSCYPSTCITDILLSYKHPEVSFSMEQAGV
Sequence of Mitogen-activated protein kinase 3 (Homo sapiens) (P27361 whole entry): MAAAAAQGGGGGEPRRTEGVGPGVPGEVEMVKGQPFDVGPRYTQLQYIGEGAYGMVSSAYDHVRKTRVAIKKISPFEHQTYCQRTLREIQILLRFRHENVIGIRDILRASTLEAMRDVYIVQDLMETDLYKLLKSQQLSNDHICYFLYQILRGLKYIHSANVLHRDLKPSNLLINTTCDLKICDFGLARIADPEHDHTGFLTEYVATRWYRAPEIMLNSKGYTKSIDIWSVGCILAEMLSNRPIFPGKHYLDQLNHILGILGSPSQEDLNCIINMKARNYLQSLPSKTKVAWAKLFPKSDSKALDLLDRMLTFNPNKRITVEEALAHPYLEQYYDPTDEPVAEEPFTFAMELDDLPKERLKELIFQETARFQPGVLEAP

COc1cc2ncnc(N[C@H](C)c3cccc4ccccc34)c2cc1OC
Activity [1]: Active | Activity [2]: 100% | Activity [3]: 91% | Activity [4]: 86% | Activity [5]: 96% | Activity [6]: 94% | Activity [7]: 91% | Activity [8]: 86%
